Legend:
NTUB1 = assay: Trial (B): MTT cytotoxicity assay, 72 hours; type: cell-based, human; conditions: 0-50 μM
Excerpt: (§1) For the sake of proving therapeutic effects of the derivatives of 18β-glycyrrhetinic acid of the present invention, including 10, 11, 13-17 and 21-25, in treating of cancer, human bladder cancer cell line NTUB1, human prostate cancer cell line PC3 cataloged as CRL-1435 (reference to J. Formosan Med. Assoc. 1992; 91:608-13), and immortalized normal human urothelial cells SV-HUC1 cataloged as CRL-9520 are purchased from American Type Culture Collection (ATCC; Rockville, USA) and maintained in a culturing medium respectively till at a preferable density to carry out a serial of trials (comprising trial A to G) for evaluating cytotoxicities of the derivatives of 18β-glycyrrhetinic acid against cancer cells, and mechanisms thereof. […]
(§2) In trial (B), the cell lines of NTUB1, PC3, and SV-HUC1 are prepared in 96-well plates and co-incubated with the compounds 21, 23 or 25 in various concentrations of 0, 0.3, 1, 3, 5, 10, 30 and 50 μM, to analyze cytotoxic effects against either cancer cell or normal cells via a modified 3-[4,5-dimethylthiazol-2-yl]-2,5-diphenyltetrazolium bromide (MTT, Sigma Chemical Co.) assay. […] At co-incubation, 50 μL of MTT (2 mg/mL in PB) is added to each well to react for 3 hours, followed by centrifugating the 96-well plates at 1000 g for 10 min to remove supernatant, adding 150 μL DMSO in each well of the 96-well plates, and determining viability rates of the NTUB1, PC3, and SV-HUC1 cells separately by an absorbance spectrometry at 540 nm with a MRX (DYNEXCO) microplate reader.

[1] = system: immortalized normal human urothelial cells SV-HUC1; assay: Trial (B): MTT assay on normal cells, 72 hours; type: cell-based; conditions: 0-50 μM
Excerpt: as §1, §2

[2] = system: human prostate cancer cell line PC3; assay: Trial (B): MTT cytotoxicity assay, 72 hours; type: cell-based; conditions: 0-50 μM
Excerpt: as §1, §2

[3] = system: human bladder cancer cell line NTUB1; assay: Trial (A): cytotoxic effect, IC50 by median-effect analysis; type: cell-based; conditions: NTUB1 cells; for cytotoxic effect against cancer cell: with reference to TABLE 2; for IC50: mean ± SD
Excerpt: For the sake of proving therapeutic effects of the derivatives of 18β-glycyrrhetinic acid of the present invention, including 10, 11, 13-17 and 21-25, in treating of cancer, human bladder cancer cell line NTUB1, human prostate cancer cell line PC3 cataloged as CRL-1435 (reference to J. Formosan Med. Assoc. 1992; 91:608-13), and immortalized normal human urothelial cells SV-HUC1 cataloged as CRL-9520 are purchased from American Type Culture Collection (ATCC; Rockville, USA) and maintained in a culturing medium respectively till at a preferable density to carry out a serial of trials (comprising trial A to G) for evaluating cytotoxicities of the derivatives of 18β-glycyrrhetinic acid against cancer cells, and mechanisms thereof.
In the present invention, the NTUB1 and the PC3 is but not limit to be maintained in RPMI 1640 medium supplemented 10% fetal bovine serum (FBS), 100 unit/mL penicillin-G, 100 μg/mL streptomycin, and 2 mM L-glutamine, yet the SV-HUC1 is maintained in F12 medium supplemented with 10% fetal bovine serum (FBS), 100 unit/mL penicillin-G, 100 μg/mL streptomycin, and 2 mM L-glutamine, culturing at 37° C. in a humidified atmosphere containing 5% CO2 till at a density of 70% per well, followed by repeatedly suspending cells in each well with an ethylene diamine tetra-acetic acid buffer (EDTA buffer; Merck) and counting cell numbers.
In the present invention, the IC50 values of each group are presented as mean±standard deviation (SD).

p-p53 (Ser15) = assay: Trial (G): expression of p53 / p-p53 by Western blot; type: cell-based, human; conditions: NAC with 50 μM 25, 24 hours, NTUB1
Experimental: In trial (G), expression of p53 is monitored via Western blot analysis in accordance with a journal article published by Son et al., at 2010 in Toxicol. Appl. Pharmacol., in which overproduction ROS induced p53 suppression is observed.
Referring to TABLE 7, the NTUB1 cells at a density of 8×10^5 cells/ml are prepared and assigned into 9 groups, including G1-1 to G1-5 and G2-1 to G2-4, to incubate in various medium for 24 hours, followed by harvesting in trypsinization, resuspending in PBS till at a suitable density and collecting the NTUB1 cells of each group respectively.
Next, the NTUB1 cells of each group are further diluted with equal volume of 2× sample buffer, boiled for 10 minutes twice to denature protein therein, and analyzed by SDS-PAGE. After that, proteins on SDS-PAGE datum are transferred to nitrocellulose membranes (Millipore, Billerica, Mass., USA) using a semi-dry blotter, followed by blocking with 5% (w/v) skimmed milk in TBST buffer (100 mM Tris-HCl (pH 7.5), 150 mM NaCl and 0.1% Tween-20), incubating with specific antibodies [including antibodies specific for b-acctin (NB600-501), p-p53 (Ser15) (9284) and p53 (DO1)]. at 4° C. overnight, washing with TBST buffer again and incubated with secondary antibody at room temperature. Finally, western data of each group are visualized on Fuji SuperRX film. […]

NTUB1 cells [4] = assay: Trial (D): production of reactive oxygen species by flow cytometry (DCF); type: cell-based, human; conditions: 24 hours
Experimental: In trial (D), production of reactive oxygen species (ROS) is analyzed by flow cytometry, since the levels of ROS play an important role in apoptosis.
Referring to TABLE 4, the NTUB1 cells at a density of 8×10^5 cells/ml are prepared and assigned into 5 groups, including D1 to D5, to incubate in various medium for 24 hours. Next, 10 μM of 2,7-dichlorodihydrofluorescein diacetate (H2DCFHDA; Molecular Probes, Eugene, Oreg.) is added to the NTUB1 cells of each group 30 minutes prior than harvest, followed by collecting the NTUB1 cells of each group respectively and washing with PBS buffer. With such arrangement, the 2,7-dichlorodihydrofluorescein diacetate will penetrate into cells, interact with esterase, and degrade to 2,7-dichlorofluorescein (DCF) having green fluorescein, which can be determined by flow cytometer. In trial (D), green fluorescence of intracellular DCF in each group are analyzed immediately by FACScan flow cytometer (Becton Dickinson) at a wavelength of 525 nm.

NTUB1 cells [5] = assay: Trial (E): cell cycle progression by flow cytometry (propidium iodide); type: cell-based, human; set-up: Sub-G1 / G1: unit not given here; conditions: 24 hours, NTUB1
Experimental: In order to determine a relationship between the derivatives of 18β-glycyrrhetinic acid of the present invention and cell cycle arrest, trial (E) is carried out by analyzing cell cycle progression by flow cytometry. […] After that, cell cycle progression of each group is determined respectively by incubating with 50 μg/mL propidium iodide (Sigma, Co) and 50 μg/mL RNase A (Sigma, Co) in PBS at room temperature for 30 min, and analyzing by FACScan flow cytometer and Cell Quest sofeware.

| SMILES | cytotoxic effect (survival ratio, FIGS. 4-6) (NTUB1) | effect on growth of normal cells (survival ratio, FIGS. 4-6) [1] | cytotoxic effect (survival ratio, FIGS. 4-6) [2] | cytotoxic effect against cancer cell [3] | IC50 [3] [µM] | also measured |
| --- | --- | --- | --- | --- | --- | --- |
| C=C(C)[C@@H]1CC[C@]2(C)[C@H](C(=O)C=C3[C@@H]4C[C@@](C)(C(=O)NC(C)C)CC[C@]4(C)CC[C@]32C)[C@@]1(C)CCC(=O)OCC [Compound 21, 30-isopropyl carbamoyl-11-oxo-18β-3,4-seco-olean-4(23),12-dien 3-ethyl ester] | cytotoxic effects against to the cancer cells in a dose-dependent manner, particularly in against to NTUB1 cell | enhance the growth of SV-HUC1 cells | cytotoxic effects against to the cancer cells in a dose-dependent manner | significantly suppress the growth of cancer cells with a lower concentrate | 19.4 ± 19.2 |  |
| C=C(C)[C@@H]1CC[C@]2(C)[C@H](C(=O)C=C3[C@@H]4C[C@@](C)(C(=O)NC(C)C)CC[C@]4(C)CC[C@]32C)[C@@]1(C)CCC(=O)NCC [Compound 23] | cytotoxic effects against to the cancer cells in a dose-dependent manner, particularly in against to NTUB1 cell | enhance the growth of SV-HUC1 cells | cytotoxic effects against to the cancer cells in a dose-dependent manner | significantly suppress the growth of cancer cells with a lower concentrate | 12.8 ± 2.1 |  |
| CC(=O)N[C@@H](CS)C(=O)O [NAC, reference compound] |  |  |  |  |  | effect on p53 phosphorylation stimulated by 25 (Western blot, FIG. 10) (p-p53 (Ser15)): prevents p53 phosphorylation that stimulated by 25; ROS (%) (NTUB1 cells [4]; 1 mM): 26.1%; G1 (NTUB1 cells [5]; 1 mM): 44.41; S (NTUB1 cells [5]; 1 mM): 29.18; Sub-G1 (NTUB1 cells [5]; 1 mM): 2.66; G2/M (NTUB1 cells [5]): 20.18 |
| N.N.[Cl][Pt][Cl] [cisplatin, cis-diamminedichloroplatinum II, reference compound] |  |  |  |  | 3.27 ± 0.1 | ROS (%) (NTUB1 cells [4]; 20 μM): 63.1%; G1 (NTUB1 cells [5]; 20 μM): 60.91; G2/M (NTUB1 cells [5]; 20 μM): 6.65; S (NTUB1 cells [5]; 20 μM): 22.09; Sub-G1 (NTUB1 cells [5]; 20 μM): 10.35 |
